TGI and GI50 data for 18 molecules are collected here from PubChem BioAssay (NCI).

Assay in all cases: NCI tumour cell line growth inhibition, 48 h
Assay [1] concerns SF-295 CNS.
Assay [2] relates to HCT-15 colon.
The test system of assay [3] is SNB-75 CNS.
Assay [4] relates to CAKI-1 renal.
Assay [5] concerns SK-MEL-5 melanoma.
Assay [6] concerns COLO 205 colon.
Assay [7] relates to MDA-MB-231 breast.
The test system of assay [8] is PC-3 prostate.
Assay [9] relates to MDA-N.
Assay [10] concerns T-47D breast.

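Briefly, cells in 96-well plates were exposed to five compound concentrations for 48 h, and endpoints were estimated by linear interpolation. GI50 marks 50% less growth. TGI denotes the concentration required for complete inhibition of growth.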

With `COC(=O)C1C=CCON2CCc3c(n(C)c4ccccc34)C12` (stereo not given), the TGI in [1], in assay [2], in assay [3], in assay [4], in [5] and in assay [6] was > 100 µM in each case.
`CNC(=S)N/N=C(\C(=N/NC(=S)NC)c1ccccn1)c1ccccn1`: the TGI in assay [7] is > 100 µM; in assay [1], > 83.2 µM; in [2], > 100 µM; in assay [3], > 92.6 µM; in assay [4] it was > 100 µM; in assay [8], > 100 µM. Besides, the results for the TGI in [5], in assay [6] and in [9] were > 67.6 µM, > 100 µM and > 100 µM, respectively.
Take `CCOC(=O)c1c(Br)c(-c2ccc(OC)cc2)c(Br)n1C`: the TGI in [7] is > 100 µM; in assay [1], 56.1 µM; in assay [2], 64.2 µM; in assay [3] it was > 100 µM; in assay [10], 82.1 µM; in [8] it was > 100 µM. Further, the TGI in assay [5] is 22.4 µM; in assay [6], > 100 µM. Further, the GI50 in [3] was 63.4 µM.
Turning to `CN(CCO)CCCC1COc2ccccc2O1` (stereo not given), the TGI in assay [1], in [2], in assay [3], in assay [4], in assay [8] and in assay [5] was > 100 µM in each case. For the same molecule, the TGI in [6] and in assay [9] was > 100 µM throughout.
Take `COC(=O)/C(=N/Nc1cccc(Cl)c1)C(C(=O)C(=O)Nc1cccc(Cl)c1C)c1nc2ccccc2nc1C` (stereo not given): the TGI in assay [1], in assay [4], in [5] and in assay [6] was > 100 µM in each case.
`CC(=O)c1ccccc1NCC(=O)Nn1cnc2ccc(S(=O)(=O)Nc3ccccc3C(C)=O)cc2c1=O`: the TGI in [7], in assay [1], in [2], in assay [3], in [4] and in [8] was > 100 µM in each case. Further, the TGI in [6] and in assay [9] was > 100 µM in each case.
As to `CCOC(=O)C(CC(C)C)NC(=O)CSc1nnc(COc2ccc(Cl)cc2)n1-c1ccccc1` (stereo not given), the TGI was found to be 30.6 µM in [7]; 37.1 µM in [2]; 32 µM in assay [3]; 45.3 µM in assay [10]; 30.8 µM in assay [8]; 32.6 µM in [5]. In addition, the TGI in [6] was 36.2 µM.
In the case of `O=C(CCC(=O)CC(O)(C(F)(F)F)C(F)(F)F)CC(O)(C(F)(F)F)C(F)(F)F`, the TGI in [7], in [1], in assay [2], in assay [3], in assay [10] and in assay [5] was > 100 µM in each case. For the same molecule, in assay [6], the TGI amounted to 96.3 µM.
Regarding `O=[N+]([O-])c1ccccc1S(=O)(=O)c1ccccc1`, the TGI in assay [1], in assay [2], in [3], in [5] and in [6] was > 100 µM in each case.
Consider `CN(C)c1ccc(C=C2C(=O)N(c3ccccc3)N(c3ccccc3)C2=O)cc1`, for which the TGI in assay [7], in assay [1], in [2], in assay [3], in assay [8] and in assay [5] was > 100 µM each time. In addition, the TGI in assay [6] and in assay [9] was > 100 µM each time.
For `COc1cc(C2=NNC(=O)c3ccccc3N2c2nc(-c3cccs3)nc3ccc(Br)cc23)cc(OC)c1OC`, the TGI is > 100 µM in assay [7]; 31.7 µM in assay [1]; 24 µM in assay [2]; > 100 µM in [3]; > 100 µM in assay [10]; 73.1 µM in [4]. Further, the TGI in assay [8] is > 100 µM; in [5] it was 50.4 µM; in assay [6], > 100 µM.
On to `O=S(OC12CC3CC(CC(C3)C1)C2)c1cc(Cl)cc(Cl)c1OCc1ccccc1` (stereo not given), for which the TGI in assay [3] was > 100 µM.
On to `CCOC(=O)C[n+]1cccc(C2(c3cc4ccccc4[nH]3)OCCO2)c1`, for which the TGI in assay [7], in assay [1], in assay [2], in assay [3], in [10] and in assay [4] was > 100 µM each time. For the same molecule, the TGI in assay [8], in assay [5] and in assay [6] was > 100 µM throughout.
In the case of `CCOC(=O)c1sc2nc(SC)nc3c2c1NCN3c1ccc(F)c(F)c1`, the TGI in assay [7] is 46.2 µM; in assay [1], 65.9 µM; in assay [2], > 100 µM; in [10], > 100 µM; in [4] it was > 100 µM; in assay [8], > 59.8 µM. The values for the TGI in assay [5], in assay [6] and in assay [9] were > 100 µM, > 100 µM and > 45.8 µM, respectively.
With `C=C1C(=O)O[C@H]2[C@H]3O[C@@H](C[C@@H]12)[C@@]1(C)CC[C@H](O1)[C@H](C)CCC[C@H]3C`, the TGI was found to be 3.12 µM in assay [7]; 17.4 µM in [1]; 3.55 µM in assay [2]; 3.15 µM in [3]; 5.53 µM in assay [10]; 2.58 µM in assay [4]. Besides, the TGI in [8] was 3.01 µM; in assay [5], 2.72 µM; in assay [6] it was 3.33 µM.
Take `COc1ccc2c(c1)C/C(=C\c1cccc3ccccc13)C2=O`: the TGI in [2], in [3], in assay [4], in [8] and in [5] was > 100 µM throughout.
For `Cc1nc2c(o1)C(=Nc1ccccc1)c1ccccc1C2=O`, the TGI in [1] came out at 30.8 µM; in assay [2], 22.6 µM; in assay [3], 23.6 µM; in assay [4], 36.7 µM; in assay [5], 5.78 µM; in [6] it was 29.7 µM.
`CCN(CC)c1ccc(N=Nc2ccc([N+](=O)[O-])cc2OC(=O)/C=C/c2ccccc2)c(OC(=O)/C=C/c2ccccc2)c1`: the TGI in assay [1], in [2], in assay [3], in assay [4], in assay [5] and in [6] was > 100 µM in each case.
